# Reference: US12213479B2, “Monoterpenoid/phenylpropanoid-containing compounds and methods of their making and use as herbicides” (KITTRICH CORPORATION, priority 2016, dated 2025)
# Entries after “also recorded” stand apart in the source; their conditions may differ.
# Tests used:
# soybeans [1] = experiment: Germination assay, soybeans coated with compound; format: in vivo, soybean; details: beans coated in 1% weight compound/weight bean
# From the text: Soybeans were susceptible to Aphis glycines infestation and were not determined to be a biotype that was resistant to infestation, which could confide results. Germination typically occurred between 3-5 days after moistening.
# Wood sorrel [2] = experiment: Foliar spray, wood sorrel; format: in vivo; details: 20 sprays of 1%; observed 2 days after exposure and later
# Method: Wood sorrel on the ground of the greenhouse was also treated with active ingredient in order to better assess the effects of foliar treatments on multiple plant species. A patch of wood sorrel was (approximately 4′×3′) was treated with 20 sprays (mist setting) from a MAINStays ironing spray bottle. Effects of the spray were recorded 2 days after exposure.
# Corn = experiment: Pre-emergence assay, corn; format: in vivo; details: for pre-emergent effect on corn (words): 1%, 3-weeks after application; for qualitative growth assessment, pre-emergence: Corn, soil treated with 40 ml of 1% solution 1 day after planting, 3 weeks after application
# Method: (§1) Corn plants were planted under ½″ of potting soil and watered every 2-3 days as necessary. Plants were grown in potting plants (6″ wide×4.5″ deep) with approximately 800 mL of soil for each plant. Plants germinated approximately 4-7 days after being planted. Plants were grown in a greenhouse under a constant temperature and light environment (25±5° C., 12 hr: 12 hr light: dark cycle).
# (§2) 1-day after seeds/beans were planted, soil was drenched with 40 ml of formulation with 1% active ingredient. This was done to assess germination inhibition in the soil. […] Qualitative growth assessment was made by comparing the treated plants to the untreated controls.
# soybeans [3] = experiment: Pre-emergence assay, soybean; format: in vivo; details: for pre-emergent effect on soybeans (words): 1%, 3-weeks after application; for qualitative growth assessment, pre-emergence: Soy, soil treated with 40 ml of 1% solution 1 day after planting, 3 weeks after application
# Method: as §1, with “Soybean” for “Corn”, “1 cm” for “½″”, “pots” for “potting plants”, “3-5” for “4-7”
# as §2
# Wood sorrel [4] = experiment: Pre-emergence assay, wood sorrel; format: in vivo; details: for pre-emergent effect on wood sorrel (words): 1%, 3-weeks after application; for qualitative growth assessment, pre-emergence: Sorrel, soil treated with 40 ml of 1% solution 1 day after planting, 3 weeks after application
# Method: as §2
# [5] = system: Dandelion (Taraxacum officinale); experiment: Weed soil drench assay, dandelion; format: in vivo; details: for Percentage mortality: Dandelions, 40 mL of 5% solution, soil drench; for chlorosis and phytotoxicity: dandelions, 40 mL of 5%, 2 days after application
# Method: Dandelion seeds were obtained from native prairie fields in Ames, IA. Individual seeds were sown for each pot (6″ wide×4.5″ deep) with approximately 800 mL of soil for each plant. Only plants that germinated were used for the study. Plants were treated 1-2 weeks post emergence. Plants were watered every 2-3 days as needed.
# Formulations of the various active ingredients were created using the monoterpenoid derivatives, potassium hydroxide, and Triton-X 100™ to aid in the solvation of the active ingredient. Formulations included 5% active ingredient by weight (0.5-1 g/100 ml water), with a 1:1 molar ratio of potassium hydroxide used to aid in the solvation (135-269 mg/100 mL for both thymyloxyacetic acid and carvacryloxyacetic acid). […] Observations were performed 2 days and 3 weeks after soil drench to determine the effects of the treatments on the various types and stages of plants. Phytotoxicity is reported as percentage of total plants treated compared to a control treatment that was exposed to a similar formulation (without the active monoterpenoid derivatives).
# Soybean plants = experiment: Foliar spray assay, soybean plants; format: in vivo; details: 1% foliar spray; for phytotoxic effects on soybean plants (words), foliar spray: 1-month old soybean plants, up to 14 days after exposure; for chlorosis / leaf death: soybean plants
# Method: Soybean plants were planted under 1 cm of potting soil and watered every 2-3 days as necessary. Plants were grown in pots (6″ wide×4.5″ deep) with approximately 800 mL of soil for each plant. Plants germinated approximately 3-5 days after being planted. Plants were grown in a greenhouse under a constant temperature and light environment (25±5° C., 12 hr:12 hr light:dark cycle). Plants were grown until reaching 4 weeks old and were then used for the foliar spray experiment.
# Formulations were made to include 1% thymyloxyacetic acid, 0.269% potassium hydroxide, and 0.25% Triton-X 100™. Soybean plants were sprayed with 10 mists from a MAINStays™ Ironing Spray bottle set to the mist setting. This corresponded to the minimum amount necessary to cause dripping from the leaves of the plants. […] Plants were placed under high intensity light (directly below greenhouse lamps) and low intensity light (not under lamp/ambient light environment). Light intensity was chosen as a factor for this experimental design. […] This effect is greatly diminished under low intensity light conditions. If thymyloxyacetic acid is causing phytotoxicity in the same mechanism of action as other plant terpenoids, there should be a drastic difference in the phytotoxicity among these different levels of light intensity.
# [6] = system: Waterhemp (Amaranthus tuberculatus); experiment: Toxicity assay (probit LC50), waterhemp; format: in vivo
# From the text: (§3) Waterhemp seeds were obtained from the Department of Agronomy at Iowa State University. Individual seeds were sown for each pot (1.5″ wide×3″ deep) with approximately 7.5 g of soil for each plot. Five seeds/plot was sown into numerous plots. After one month of germination, germinated plants were counted in each plot and this number was used for the total number of plants challenged per plot in the toxicity assessment.
# (§4) The total number of plants were counted in each plot in 24×6 hexagonal small plot planter tray. The number of germinated seeds in each plot was enumerated after one month, and for each plot this number was recorded and used as the total for each plot. Differing concentrations of thymyloxyacetic acid was applied in 5% Triton-X 100 and 1:1 molar ratio potassium hydroxide:thymyloxyacetic acid to aid in the solubility of the compound in water. Ten mL of solution was applied to each plot, and the mortality of the plants was assessed at 3 days and 2 weeks post application (for some treatments). Mortality at these time points were enumerated out of the total plants germinated in each plot at the beginning of the assay. At both time points, the total number of dead plants and total number of plants at the beginning of the assay were recorded for each observation. A Probit model was used to calculate the LC50 values for each of the compounds explored in this assay. A formulation control (with no active ingredient) was screened against a number of plants and factored into the final probit model. This formulation control had little-to-no effect by itself.
# [7] = system: Cocklebur (Xanthium spp.); experiment: Toxicity assay (probit LC50), cocklebur; format: in vivo
# From the text: as §3, with “Cocklebur burs” for “Waterhemp seeds”, “One bur/plot” for “Five seeds/plot”
# as §4
# [8] = system: various dicot weed species; experiment: Selectivity assessment, dicot weed species compared to bluegrass; format: in vivo; details: range over various weed species
# From the text: as §3, with “Kentucky bluegrass” for “Waterhemp”, “purchased in a bag under” for “obtained from”, “commercial name of.” for “Department of Agronomy at Iowa State University.”, “10” for “Five”
# as §4, with “A formulation control (with no active ingredient) was screened against a number of plants and factored into the final probit model. This formulation control had little-to-no effect by itself.” left out
# [9] = listed as Carvacryloxyacetic acid
SMILES,inhibition of soybean germination/growth (words) (soybeans [1]),pre-emergent effect on corn (words) (Corn),"qualitative growth assessment, pre-emergence (Corn)",pre-emergent effect on soybeans (words) (soybeans [3]),"qualitative growth assessment, pre-emergence (soybeans [3])",pre-emergent effect on wood sorrel (words) (Wood sorrel [4]),"qualitative growth assessment, pre-emergence (Wood sorrel [4])",Percentage mortality ([5]; 2-days after treatment),Percentage mortality ([5]; 3-weeks after treatment),chlorosis and phytotoxicity [5],further results
"Cc1ccc(C(C)C)cc1OCC(=O)O [carvacryloxyacetic acid, 2-(5-isopropyl-2-methylphenoxy)acetic acid]",prevented the growth of soybeans,significant inhibition in corn growth,− −,completely prevented from growing,XXX (plant death),completely prevented from growing,− −,100%,100%,significant chlorosis and phytotoxicity,"phytotoxic effect on wood sorrel, foliar spray (Wood sorrel [2]): Death followed quickly after 2 days post-exposure; also recorded: immediate and widespread chlorosis followed by relatively quick plant death; pre-emergent effect on corn (words) (Corn; [9]): significantly inhibited the growth; pre-emergent effect on soybeans (words) (soybeans [3]; [9]): prevented the emergence of soybean plants entirely; pre-emergent effect on wood sorrel (words) (Wood sorrel [4]; [9]): significantly inhibited the growth"
"Cc1ccc(C(C)C)c(OCC(=O)O)c1 [thymyloxyacetic acid, 2-(2-isopropyl-5-methylphenoxy)acetic acid]",prevented the growth of soybeans,significantly inhibited; also recorded: capable of inhibiting the growth,−,most susceptible,− − −,significantly inhibited,−,100%,100%,significant chlorosis and phytotoxicity,"phytotoxic effects on soybean plants (words), foliar spray (Soybean plants): significant chlorosis and wilting; phytotoxic effects on soybean plants (words), foliar spray (Soybean plants; listed as Thymyloxyacetic acid): significant phytotoxic effects; chlorosis (Soybean plants; High intensity light): ✓; leaf death (Soybean plants; High intensity light): ✓; chlorosis (Soybean plants; Low intensity light): ✓; leaf death (Soybean plants; Low intensity light): ✓; pre-emergent effect on soybeans (words) (soybeans [3]; listed as Thymyloxyacetic acid): major inhibition of growth; pre-emergent effect on wood sorrel (words) (Wood sorrel [4]; listed as Thymyloxyacetic acid): major inhibition of growth; LC50 Value ([6]; Waterhemp): 700 ppm; Selective Toxicity Compared to Bluegrass ([6]; Waterhemp compared to bluegrass): 5; LC50 Value ([7]; Cocklebur): 1530 ppm; Selective Toxicity Compared to Bluegrass ([7]; Cocklebur compared to bluegrass): 2.29; selectivity ratio compared to a blue grass species [8]: 2.06-5 fold"
